Data: article PMC7822874, “Chemoprotective antimalarials identified through quantitative high-throughput screening of Plasmodium blood and liver stage parasites” (Scientific Reports, 2021)
Values joined by “and” are separate entries in the source; they are usually repeats but may differ in a detail not shown here. Identical values can stand only once. Like-named read-outs stand apart in the source and are kept apart here.

Columns and labels:
HepG2 = conditions: human, hepg2 cells, 48 h
HepG2-A16-CD81EGFP cells = conditions: for HepG2 1uM growth rep1 / HepG2 1uM growth rep2: HepG2, 1 µM compound treatment (10 mM stocks); for HepG2 1uM growth rep1 / HepG2 3uM growth rep1: replicate 1, normalized; for HepG2 1uM growth rep2 / HepG2 3uM growth rep2: replicate 2, normalized; for HepG2 3uM growth rep1 / HepG2 3uM growth rep2: HepG2, 3 µM compound treatment (10 mM stocks)
in vitro [1] = conditions: human, hepg2 cells
in vitro [2] = conditions: human
[3] = test system: Plasmodium falciparum Dd2 asexual blood stage parasites; test: microbe, parasite or virus in culture; parameters: species or system Plasmodium falciparum Dd2 in human erythrocytes; single determination (one 11-point concentration-response curve); conditions: Plasmodium falciparum, DD2, Erythrocyte, 72 h; read-out: AC50
[4] = test system: P. berghei-ANKA-GFP-LucCON liver stage parasites in HepG2-A16-CD81EGFP cells; test: P. berghei liver stage Pb-Luc assay, Method 1 (UCSD, 1536-well); format: cell-based, Plasmodium berghei; conditions: Plasmodium berghei, 48 h
[5] = HepG2-A16-CD81EGFP cells, uninfected
[6] = nominal 1 uM (10 mM stock), […] for 15 mM, 1.2 uM for 12 mM, 2 uM for 20 mM stock, average of 2 wells, repeat 2
[7] = nominal 3 uM (10 mM stock), 4.5 uM for 15 mM, 3.6 uM for 12 mM, 6 uM for 20 mM stock, average of 2 wells, repeat 2
[8] = nominal 1 uM (10 mM stock), […] for 15 mM, 1.2 uM for 12 mM, 2 uM for 20 mM stock, average of 2 wells, 1536-well plate, repeat 1, read-out: Pb-Luc signal, 1 uM, repeat 1
[9] = nominal 1 uM (10 mM stock), […] for 15 mM, 1.2 uM for 12 mM, 2 uM for 20 mM stock, average of 2 wells, 1536-well plate, repeat 2, read-out: Pb-Luc signal, 1 uM, repeat 2
[10] = nominal 1 uM (10 mM stock), […] for 15 mM, 1.2 uM for 12 mM, 2 uM for 20 mM stock, average of 2 wells, 1536-well plate, repeat 3, read-out: Pb-Luc signal, 1 uM, repeat 3
[11] = nominal 3 uM (10 mM stock), 4.5 uM for 15 mM, 3.6 uM for 12 mM, 6 uM for 20 mM stock, average of 2 wells, 1536-well plate, repeat 1, read-out: Pb-Luc signal, 3 uM, repeat 1
[12] = nominal 3 uM (10 mM stock), 4.5 uM for 15 mM, 3.6 uM for 12 mM, 6 uM for 20 mM stock, average of 2 wells, 1536-well plate, repeat 2, read-out: Pb-Luc signal, 3 uM, repeat 2
[13] = nominal 3 uM (10 mM stock), 4.5 uM for 15 mM, 3.6 uM for 12 mM, 6 uM for 20 mM stock, average of 2 wells, 1536-well plate, repeat 3, read-out: Pb-Luc signal, 3 uM, repeat 3
[14] = P. berghei liver stage, 1 µM compound treatment (10 mM stocks), replicate 1, normalized, average of 2 wells on a 1536 well plate, read-out: PbLuc 1uM growth rep1
[15] = P. berghei liver stage, 1 µM compound treatment (10 mM stocks), replicate 2, normalized, average of 2 wells on a 1536 well plate, read-out: PbLuc 1uM growth rep2
[16] = P. berghei liver stage, 3 µM compound treatment (10 mM stocks), replicate 1, normalized, average of 2 wells on a 1536 well plate, read-out: PbLuc 3uM growth rep1
[17] = P. berghei liver stage, 3 µM compound treatment (10 mM stocks), replicate 2, normalized, average of 2 wells on a 1536 well plate, read-out: PbLuc 3uM growth rep2

Row | Compound | Log AC50 (M) (HepG2) | CC50 at 48 h (in vitro [1]) [µM] | viability at 48 h, 1 µM (in vitro [2]; [5]) [%] | viability at 48 h, 3 µM (in vitro [2]; [5]) [%] | HepG2 viability signal, 1 uM, repeat 2 (HepG2-A16-CD81EGFP cells; [6]) [%] | HepG2 viability signal, 3 uM, repeat 2 (HepG2-A16-CD81EGFP cells; [7]) [%] | AC50 [3] [µM] | activity at 1 µM [4, 8] [%] | activity at 1 µM [4, 9] [%] | activity at 1 µM [4, 10] [%] | activity at 3 µM [4, 11] [%] | activity at 3 µM [4, 12] [%] | activity at 3 µM [4, 13] [%] | HepG2 1uM growth rep1 (HepG2-A16-CD81EGFP cells; average of 2 wells) [%] | HepG2 1uM growth rep2 (HepG2-A16-CD81EGFP cells; average of 2 wells) [%] | HepG2 3uM growth rep1 (HepG2-A16-CD81EGFP cells; average of 2 wells) [%] | HepG2 3uM growth rep2 (HepG2-A16-CD81EGFP cells; average of 2 wells) [%] | activity at 1 µM [4, 14] [%] | activity at 1 µM [4, 15] [%] | activity at 3 µM [4, 16] [%] | also measured
1 | Br.CCOC(=O)c1c(CSC(=N)N)n(-c2ccc(Br)cc2)c2cc(Br)c(OC(C)=O)cc12 [MLS000595146-01] | -4.3143 | 48.5 | 105 | 104 |  |  |  |  |  |  |  |  |  |  |  |  |  |  |  |  | HepG2 viability, % of control (HepG2-A16-CD81EGFP cells): 100% and 96%
2 | CCCCCn1c(=N)n(CC(O)COc2cccc(C)c2)c2ccccc21 (centres unmarked) [NCGC00101833-01] | -4.3643 | 43.2 | 98.8 | 94.8 | 100.99 | 100.64 | 2.11 | 93.7 | 90.1 | 79.6 | 67.5 | 71 | 96.1 |  |  |  |  |  |  |  | 
3 | N=c1n(CCN2CCCCC2)c2ccccc2n1CC(O)COc1ccc(Cl)cc1Cl (centres unmarked) [NCGC00100256-01] | -4.5143 | 30.6 | 103 | 102 | 103.32 | 101.25 | 4.22 | 94.7 | 93.8 | 119 | 65.4 | 71 | 72.8 |  |  |  |  |  |  |  | 
4 | CN(C)CCCNc1cc(N2CCN(C3CCCCC3)CC2)c2noc3c2c1C(=O)c1ccccc1-3 [NCGC00111069-01] | -4.4143 | 38.5 | 96.3 | 93.8 | 102.79 | 99.71 | 1.33 | 66 | 110 | 109 | 57.2 | 71.6 | 75.6 |  |  |  |  |  |  |  | 
5 | O=C(Nc1ccccc1)OC[C@H]1C[C@@H]2CCN1C[C@@H]2c1cc(C2CCCC2)nc(-c2ccncc2)n1 [NCGC00421344-01] | -4.4643 | 34.3 |  |  |  |  | 1.68 | 68.5 | 91.8 | 72.8 | 27.1 | 71.6 | 77.7 |  |  |  |  |  |  |  | HepG2 viability signal, 1 uM, repeat 2 (HepG2-A16-CD81EGFP cells; human, 48 h, 1 µM): 103.60%; HepG2 viability signal, 3 uM, repeat 2 (HepG2-A16-CD81EGFP cells; human, 48 h, 3 µM): 105.28%; viability at 48 h, 1 µM (in vitro [2]): 101%; viability at 48 h, 3 µM (in vitro [2]): 105%
6 | COc1ccc(CN2CCCn3nc(C)c(-c4ccccc4Oc4ccccc4)c32)cc1O [NCGC00420291-01] | -4.3643 | 43.2 | 101 | 105 | 99.76 | 103.00 | 9.44 | 77.1 | 79.5 | 133 | 83.6 | 59.5 | 87.2 |  |  |  |  |  |  |  | 
7 | CCOc1cccc(CNCCc2c(C)[nH]c3ccc(OC(F)(F)F)cc23)c1O.O=C(O)C(=O)O [MLS001198351-01] | -4.4643 | 34.3 |  |  |  |  | 2.37 |  |  |  |  |  |  | 97 | 92 | 70 | 71 | 46 | 47 | 9 | activity at 3 µM [4, 17]: 16%
8 | N#Cc1ccc(NC(=O)Nc2ccc(Cl)cc2)cc1 [MLS000104525-01] | -4.4643 | 34.3 |  |  |  |  | 5.31 |  |  |  |  |  |  | 95 | 87 | 72 | 84 | 86 | 61 | 6.45 | activity at 3 µM [4, 17]: 7%
9 | CN1CCN(c2ccc3ncc(Nc4ccccc4-c4ccccc4)n3n2)CC1 [NCGC00412547-01] | -4.3528 | 44.4 | 96 | 97.1 | 97.22 | 96.99 | 0.863 | 101 | 104 | 100 | 50.6 | 88.8 | 92.9 |  |  |  |  |  |  |  | 
10 | NS(=O)(=O)c1ccc(N/N=C/c2cn(-c3ccccc3)nc2-c2cccs2)cc1 [MLS000393371-01] | -4.6643 | 21.7 |  |  |  |  | 0.335 |  |  |  |  |  |  | 92 | 91 | 94 | 94 | 80 | 57 | 26 | activity at 3 µM [4, 17]: 21%
